One test deals with T1, hTMEM16A (abc) (Homo sapiens, UniProt Q5XXA6, DEL476-501).
T1 sequence (Q5XXA6 with tags, fused parts or gaps isoform Q5XXA6-5 DEL539-564): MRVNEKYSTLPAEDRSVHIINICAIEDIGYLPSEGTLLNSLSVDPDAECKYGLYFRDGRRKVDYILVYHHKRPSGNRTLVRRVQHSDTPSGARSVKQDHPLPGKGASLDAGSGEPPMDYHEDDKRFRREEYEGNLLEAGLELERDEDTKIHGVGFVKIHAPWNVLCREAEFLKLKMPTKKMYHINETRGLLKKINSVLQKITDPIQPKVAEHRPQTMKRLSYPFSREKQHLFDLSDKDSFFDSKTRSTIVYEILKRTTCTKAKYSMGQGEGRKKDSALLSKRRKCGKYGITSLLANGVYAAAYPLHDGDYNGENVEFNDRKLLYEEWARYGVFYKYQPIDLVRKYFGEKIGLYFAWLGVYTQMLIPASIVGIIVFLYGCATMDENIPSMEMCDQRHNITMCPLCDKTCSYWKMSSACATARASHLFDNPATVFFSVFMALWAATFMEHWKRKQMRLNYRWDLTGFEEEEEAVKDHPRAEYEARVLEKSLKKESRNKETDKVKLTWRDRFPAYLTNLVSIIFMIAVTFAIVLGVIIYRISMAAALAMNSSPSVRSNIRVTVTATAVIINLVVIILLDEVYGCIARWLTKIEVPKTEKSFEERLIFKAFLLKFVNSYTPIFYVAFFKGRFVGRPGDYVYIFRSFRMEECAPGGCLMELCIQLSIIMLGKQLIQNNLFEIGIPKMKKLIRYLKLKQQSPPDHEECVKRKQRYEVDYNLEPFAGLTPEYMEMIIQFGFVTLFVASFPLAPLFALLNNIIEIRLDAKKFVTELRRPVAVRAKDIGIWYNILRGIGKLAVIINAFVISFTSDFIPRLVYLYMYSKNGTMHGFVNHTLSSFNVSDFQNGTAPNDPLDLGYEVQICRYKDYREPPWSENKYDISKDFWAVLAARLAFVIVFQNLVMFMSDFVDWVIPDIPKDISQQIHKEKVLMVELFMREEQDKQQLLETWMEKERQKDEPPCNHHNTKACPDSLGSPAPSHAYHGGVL
The test can be described thus: medchem TMEM16A halide-sensitive YFP assay, 22-point dose-response. The test is classed as cell-based. Also noted: expressed in transfected cells. Conditions: for scope of block of ionomycin-induced iodide eYFP quenching: up to 55.6 μM. The method in brief: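 HEK293T stably expressing eYFP (H149Q, I153L) and hTMEM16A(abc), preincubated 30 min at room temperature with compound in HBSS/10 mM HEPES pH 7.4.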

Another test deals with mouse tracheal rings. The test can be described thus: Wire myograph bronchodilation of carbachol pre-contracted mouse tracheal rings. To be noted: for EC50: Mus musculus; for time to steady-state relaxation of mouse tracheal rings: EC75 carbachol; for onset of action: bronchodilating mouse airways, summary. On the procedure:
The trachea from C57 BL/6 mice was dissected and collected in PBS with Mg^2+ and Ca^2+. After further trimming, two 2 mm sections (rings) per trachea were then placed in DMEM media containing PSG/HEPES/AA/NaPyr for 1 h and used immediately or maintained overnight at 37°C in a humidified incubator with 5% CO2. Rings were then mounted into chambers of DMT wire myograph containing L-shaped mounting pins with 2–3 mN of force applied to secure rings on the pins and the rings were allowed to equilibrate for 25–30 min in a physiological saline buffer (PSS, 130 mM NaCl, 4.7 mM KCl, 1.2 mM MgS04, 14.9 mM NaHCO3, 1.2 mM KH2PO4, 0.026 mM EDTA, 1.6 mM CaCl2, 5.5 mM Dextrose). Throughout the experiment, rings were maintained at physiological temperature and gas conditions by heating buffer reservoir and chamber to 37°C and bubbling a 95% O2, 5% CO2 gas mixture into chamber.
After equilibration, a standard tissue “Wake-Up” procedure was applied by altering tension and then treatment with elevated potassium as follows: 3 mN tension was applied for 5–10 min, then another 2–3 mN tension to total of 5.5 mN and then to 7–8 mN for another 5 min; the tissue pre-tension was then set to 5 mN and allowed to equilibrate for 5–10 min followed by the removal of the PSS buffer and addition of KPSS (60 mM KCl, 74.7 mM NaCl in PSS solution), with force changes monitored until they reached a plateau. The tissue was then washed four times with PSS over 5 min and the KPSS treatment and washes repeated; the tissue was then allowed to sit in PSS for 10 min and the tension was set to 5 mN.
The tissue was then washed three times and then three times more with PSS for 5 min until tension returned to baseline.
Only tissue that passed the qualification tests above advanced to studies on test article compounds. […] For standard ascending dose-response studies on TMEM16A antagonists, an EC75 or EC95 concentration of CCh was used to pre-contract tracheal rings.

Where [1] appears, read: average, 22-point dose-response, iodide as permeant anion, read-out: TMEM16A eYFP Assay (IC50).
The mark [2] stands for this setting: supplement, iodide as permeant anion, maximum concentration 55.6, read-out: TMEM16A eYFP Assay IC50.
Where [3] appears, read: carbachol pre-contracted, values marked † (footnote not given), read-out: Bronchodilation of Mouse Tracheal Rings (EC50).
Setting [4] is: carbachol pre-contracted, values marked § (footnote not given), read-out: Bronchodilation of Mouse Tracheal Rings (EC50).
[5] abbreviates: pre-contracted with EC75 carbachol, average, read-out: EC50 relaxation of mouse tracheal rings.

Molecules are shown by their SMILES. Several values for one entry are separate records, joined by “and”; a condition that tells them apart may be missing. Equal values may be shown once. Read-outs that look alike come from different tables or passages of the source.

As usually defined, the IC50 is the midpoint of a concentration-inhibition curve. In general, EC50 refers to the concentration needed to bring the measured effect to its halfway point. Take `N#Cc1c(C(F)(F)F)cc(O)n2c1nc1ccccc12` [1PBC]: the IC50 at hTMEM16A (abc) (setting [1]) and at hTMEM16A (abc) (setting [2]) was 1520 ± 1360 nM in each case. Further, the “scope of block of ionomycin-induced iodide eYFP quenching” value (from here on “scope”) on hTMEM16A (abc) is “only partial inhibition”. Besides, the EC50 in the test with mouse tracheal rings (setting [3]) stood at 1770 nM.

On to `CCc1oc2ccccc2c1C(=O)c1cc(Br)c(O)c(Br)c1` [Benzbromarone], for which the IC50 on hTMEM16A (abc) (TMEM16A eYFP Assay IC50, supplement, iodide as permeant anion, maximum concentration 55.6) was found to be 1510 ± 504 nM; at hTMEM16A (abc) (setting [1]) it was 1510 ± 504 nM. Further, the “scope” value at hTMEM16A (abc) is “fully inhibited”. For the same compound, the “time to steady-state relaxation of mouse tracheal rings” value (from here on “time to steady-state relaxation”) with mouse tracheal rings (1 μM) fell in the range of 40 to 60 min. Moreover, the EC50 stood at 1280 ± 211 nM in the test on mouse tracheal rings (setting [3]) and 1280 nM in the test on mouse tracheal rings (pre-contracted with EC75 carbachol, read-out: EC50 relaxation of mouse tracheal rings). In the test with mouse tracheal rings, this compound came in with an onset of action of 17 to 60 min.

In the case of `CC(C)(C)C1CCc2c(sc(NC(=O)c3ccco3)c2C(=O)O)C1` (stereo not drawn) [CaCCinh-A01], the EC50 in the test with mouse tracheal rings (setting [3]) came to 13500 nM.

For the compound `O=C(Nc1ccc([N+](=O)[O-])cc1)c1cc(Cl)ccc1O` [Cpd 2], the “scope” value on hTMEM16A (abc) is recorded as “only partially inhibited”. In addition, the EC50 amounted to 585 nM in the test on mouse tracheal rings (setting [4]) and 483 nM in the test with mouse tracheal rings (setting [3]).

Turning to `O=C(Nc1ccc([N+](=O)[O-])cc1)c1cc(Cl)c2ccccc2c1O` [Cpd 3], the IC50 at hTMEM16A (abc) (setting [1]) was found to be 184 ± 89 nM. The “scope” value at hTMEM16A (abc) is listed as “only partially inhibited”. Also, the EC50 in the test with mouse tracheal rings (setting [4]) stood at 606 ± 3 nM.

Turning to `COc1cc([N+](=O)[O-])ccc1NC(=O)c1cc(Cl)c2ccccc2c1O` [Cpd 4], the IC50 on hTMEM16A (abc) (setting [1]) came out at 901 ± 524 nM; at hTMEM16A (abc) (setting [2]), 954 ± 648 nM. Moreover, the “scope” value on hTMEM16A (abc) is on record as “only partial inhibition”. In the test on mouse tracheal rings (316 nM), the “time to steady-state relaxation” value is 25 to 45 min. Further, the EC50 in the test on mouse tracheal rings (setting [3]) is 467 ± 167 nM; with mouse tracheal rings (setting [5]) it was about 332 nM. Besides, in the test with mouse tracheal rings, the onset of action is 17 to 60 min.

Take `O=C(Nc1ccc(Cl)cc1)c1cc(Cl)ccc1O` [Cpd 5]: the IC50 on hTMEM16A (abc) (setting [1]) and on hTMEM16A (abc) (setting [2]) was 370 ± 131 nM each time. Further, the “scope” value at hTMEM16A (abc) is reported as “only partially inhibited”. Further, the EC50 in the test with mouse tracheal rings (setting [3]) was 1120 nM.

Regarding `Oc1ccc(Cl)cc1Cc1cc(Cl)ccc1O` [Dichlorophen], the IC50 at hTMEM16A (abc) (setting [1]) amounted to 4370 ± 1210 nM; at hTMEM16A (abc) (setting [2]), 4360 ± 1210 nM. The “scope” value on hTMEM16A (abc) is “fully inhibited”. In addition, the EC50 in the test with mouse tracheal rings (setting [3]) worked out at 2010 nM.

For the compound `COc1cc(Nc2ccc([N+](=O)[O-])cc2C(=O)O)cc2ccccc12` [MONNA], the IC50 on hTMEM16A (abc) (setting [1]) is 6300 ± 1470 nM; on hTMEM16A (abc) (setting [2]), 6290 ± 1470 nM. In addition, the “scope” value on hTMEM16A (abc) is given as “fully inhibited”. The EC50 in the test on mouse tracheal rings (setting [3]) is 3020 nM.

On to `O=C(Nc1ncc([N+](=O)[O-])s1)c1cccs1` [NTTP], for which, at hTMEM16A (abc) (setting [1]), the IC50 came out at 2480 ± 1240 nM. Besides, the EC50 with mouse tracheal rings (setting [4]) came to 7610 nM.

On to `O=C(Nc1ccc([N+](=O)[O-])cc1Cl)c1cc(Cl)ccc1O` [Niclosamide], for which the IC50 was 130 nM and 132 nM at hTMEM16A (abc) (setting [1]); 132 ± 67.1 nM on hTMEM16A (abc) (setting [2]). For the same compound, the “maximal percent inhibition in the TMEM16A/eYFP assay” value on hTMEM16A (abc) (iodide as permeant anion) is 62.4 ± 12.0%. Moreover, the “scope” value on hTMEM16A (abc) is on record as “only partial inhibition”. The “times more potent than other antagonists in the halide-sensitive YFP assay” value on hTMEM16A (abc) (versus eight benchmark antagonists) was 10–200 times. The “time to steady-state relaxation” value in the test with mouse tracheal rings (1 μM) fell in the range of 17 to 35 min. Besides, the figures for the EC50 with mouse tracheal rings (setting [3]) and with mouse tracheal rings (setting [5]) were 379 ± 82 nM and 365 nM, respectively. Besides, the onset of action with mouse tracheal rings was in the range of 17 to 60 min.

`O=C(O)c1cccnc1Nc1cccc(C(F)(F)F)c1` [Niflumic Acid]: the IC50 at hTMEM16A (abc) (setting [1]) came out at 26600 ± 11800 nM. For the same compound, the EC50 in the test on mouse tracheal rings (setting [3]) came to 51200 nM.

Turning to `CCc1c(C)nc(SCC(=O)Nc2nc(-c3ccc(OC)cc3)cs2)[nH]c1=O` [T16Ainh-A01], the IC50 at hTMEM16A (abc) (setting [1]) was over 50000 nM; on hTMEM16A (abc) (setting [2]), over 55600 nM. Moreover, on hTMEM16A (abc), the “scope” value was “inactive”. In the test on mouse tracheal rings (setting [3]), the EC50 is over 50000 nM.

In the case of `O=C(Nc1ncc([N+](=O)[O-])s1)c1ccccc1O` [Tizoxanide], the IC50 on hTMEM16A (abc) (setting [1]) amounted to 398 nM. For the same compound, the “scope” value on hTMEM16A (abc) was “partially inhibiting”. In the test with mouse tracheal rings (setting [3]), the EC50 worked out at 3900 nM.

Source of the values: article PMC6382696, “Drug Repurposing: The Anthelmintics Niclosamide and Nitazoxanide Are Potent TMEM16A Antagonists That Fully Bronchodilate Airways” (Frontiers in Pharmacology, 2019).
